Tests used:
[1] = system: NPM1mut AML patient-derived xenograft (H3K27me3HIST1high / H3K27me3HIST1low); test: Patient-derived xenograft (PDX) treated with Ara-C; format: in vivo, mice; details: for Percentage of leukemic initiating cells (LIC) in BM: 2-round ARAC treated versus untreated
Description: FIG. 4: Detection of leukemic initiating cells after ARAC treatment. (A) H3K27me3HIST1^high and H3K27me3HIST1^low AML secondary transplants were injected in immunocompromised mice (NSG). At disease detection, mice were treated with a first round of ARAC (T1). Blasts in the peripheral blood were followed and a second ARAC treatment (T2) was administrated. (B) Frequency of leukemic initiating cells were analyzed in the BM of the transplanted mice. Percentages are calculated in relation to CD45 and CD33 positive cells detected.
We determined the response to chemotherapy according to H3K27me3 status. This was tested in vivo using patient-derived xenograft (PDX) treated with chemotherapeutic drugs (Ara-C). We used secondary transplantation from 1 H3K27me3HIST1low and 2 H3K27me3HIST1high NPM1mut AML patients. Experimental groups of 6 mice/groups of H3K27me3 HIST1high versus H3K27me3 HIST1low were studied. Mice were treated for one week and progression of leukemia was evaluated by counting hCD45+ cells in blood and after euthanasia in bone marrow. Mouse maintenance and experimental procedures were performed in accordance with protocols approved and compliance with policies approved by the local Committee for Animal Experimentation of Marseille (CAE of Provence number 14), France (2-091009).
We performed a second round of ARAC treatment and analyzed the presence of leukemic cells 4-day post treatment. Numbers of blasts were variable depending on the patient with an accumulation in the BM of leukemic Blast in one of the PDX. […] Thus we analyzed the % of LIC in the 2-round ARAC treated mice in comparison to untreated ones (FIG. 4A).

[2] = system: OCI-AML3 cells; test: Morphological analysis (May-Grunwald Giemsa), cells with cytoplasmic granules; format: cell-based; details: ATRA 0.5 μM, 96 h
Description: (§1) (A) OCI-AML cells were stably infected by a doxycycline inducible shCtrl or shH1d. Expression of the main histone H1 genes (HIST1H1B, HIST1H1C, HIST1H1D, HIST1H1E, HIST1H1F0 and HIST1HIFx) were analyzed by qPCR in shCtrl and sh #1 without (Dox−) or with 6-days-induction of doxycycline (Dox+). Data represent three independent Dox inductions. Results are normalized on HPRT and expressed in fold change (FC) between Doxycyline treated (Dox+) and non-treated conditions (Dox−). (B) Percentage of CD11b positive cells in shCtrl and sh #1 upon or not (Dox−) 6-days-induction with 2 μg/mL doxycycline (Dox+), without ATRA (wo ATRA) or with 72 hours of ATRA treatment (0.5 μM or 1 μM). […]
Cytospins were prepared by centrifugation in […] PBS at a speed of 500 rpm for 5 min using Superfrost slides. […] 100 cells were counted in duplicate for each condition and examined for cellular morphology using an structured light ApoTome™ microscope (Zeiss, Munich, Germany) equipped with a 63× 1.4 plan ApoChromat objective and an Axiocam™ MRc5 camera.
To investigate the effect of low H1d expression on AML, we performed H1d knockdown (KD) in OC1-AML3 cells, an AML cell line expressing a NPM1 mutated allele.^26 Efficiency and specificity of our KD were assessed by testing the different mRNA H1 subtypes expression by q-PCR (FIG. 2A) and by measuring H1d protein level after doxycycline induction (data not shown). […]

[3] = system: OCI-AML3 cells; test: qPCR expression of ATRA-induced genes CYBB and ITGAM; format: cell-based; details: ATRA 1 μM, H1d KD versus no doxycycline induction
Description: as §1
(§2) To investigate the effect of low H1d expression on AML, we performed H1d knockdown (KD) in OC1-AML3 cells, an AML cell line expressing a NPM1 mutated allele.^26 Efficiency and specificity of our KD were assessed by testing the different mRNA H1 subtypes expression by q-PCR (FIG. 2A) and by measuring H1d protein level after doxycycline induction (data not shown). Consequences of H1d KD on differentiation were evaluated by measuring CD11b and CD11c expression in OCI-AML3 after doxycycline induction. […] As OCI-AML3 can differentiate in vitro in the presence of ATRA, albeit at low efficiency,^27,28 we further analyzed the effect of H1d KD in combination with ATRA treatment. […]

[4] = system: OCI-AML3 cells; test: CD11b/CD11c differentiation markers by flow cytometry in OCI-AML3 with or without H1d knockdown and ATRA; format: cell-based; details: for proportion of the double positive CD11b/CD11c populations / CD11b expression (percentage of CD11b positive cells): ATRA 0.5 μM; for proportion of the double positive CD11b/CD11c populations: 72 h
Description: (A) OCI-AML cells were stably infected by a doxycycline inducible shCtrl or shH1d. Expression of the main histone H1 genes (HIST1H1B, HIST1H1C, HIST1H1D, HIST1H1E, HIST1H1F0 and HIST1HIFx) were analyzed by qPCR in shCtrl and sh #1 without (Dox−) or with 6-days-induction of doxycycline (Dox+). Data represent three independent Dox inductions. Results are normalized on HPRT and expressed in fold change (FC) between Doxycyline treated (Dox+) and non-treated conditions (Dox−). (B) Percentage of CD11b positive cells in shCtrl and sh #1 upon or not (Dox−) 6-days-induction with 2 μg/mL doxycycline (Dox+), without ATRA (wo ATRA) or with 72 hours of ATRA treatment (0.5 μM or 1 μM). (C) Percentage of CD11b-CD11c cells upon 72 h of ATRA-treatment (0.5 μM) in shCtrl and sh #1 conditions. Data represent three independent experiments. Statistical significance was estimated using Mann Whitney test * p<0.05; **p<0.005. (D) Cytological analysis of shCtrl and sh #1 clones upon or not (Dox−) 6-days-induction with doxycycline (Dox+) and after 96 h of ATRA treatment (0.5 μM). (D) May-Grunwald Giemsa coloration of shCtrl and sh #1 clones after 6-days-induction with doxycycline and 96 h hours of ATRA treatment. Black arrows are pointing cytoplasmic azurophilic granules. (E) Expression analysis of two genes associated with ATRA-induced differentiation: CYBB (Cytochrome B-245 Beta Chain) and ITGAM (Integrin Subunit Alpha M) in untreated OCI-AML3 and in ATRA-treated (1 μM) sh #1 without or with doxycycline induction. Data represent three independent experiments. Gene expression was normalized to two housekeeping genes (PGK1 and PPIA). Statistical significance was estimated using T-test (* one-tailed p value <0.05).
The OCI-AML3 cells were grown in MEMα medium supplemented with 20% fetal bovine serum, 100 U/mL penicillin and 100 U/mL streptomycin at 37° C. in humidified atmosphere containing 5% CO2. H1d knockdown was achieved using doxycylin-induced Dharmacon™SMARTvector™ short hairpin RNA (n° V3SH7669-229784413). A non-silencing sh RNA (piSMART VSC10730) was used as a control (shCtrl). Cells containing the SMARTvector™ were selected on puromycin (2 μg/mL) during one day and sorted using ARIAIII cytometer before clonal selection. Three independent cellular clones (sh #1; sh #2; sh #3) were selected. KD of H1d protein was obtained by the addition on doxycycline (2 μg/mL) during 5-7 days. All-trans-retinoic acid (ATRA; Sigma) was resuspended at 10 mM in DMSO and stored at −20° C. Intermediate dilutions were made in culture medium before adding to the cells.
Flow cytometry analyses were performed using a BD-LSRII cytometer and analyzed using BD-DIVA Version 6.1.2 software (BD Biosciences). […]
as §2

SMILES	Percentage of leukemic initiating cells (LIC) in BM ([1]; H3K27me3HIST1high PDX)	Percentage of leukemic initiating cells (LIC) in BM ([1]; H3K27me3HIST1low PDX)	Response to chemotherapy (progression of leukemia, hCD45+ cells) ([1]; first round, one week treatment, all PDX independently of H3K27me3HIST1 status)	proportion of cells with more than two cytoplasmic granules ([2]; H1d KD)	proportion of cells with more than two cytoplasmic granules ([2]; control (no H1d KD))	CYBB mRNA expression level [3]	ITGAM mRNA expression level [3]	proportion of the double positive CD11b/CD11c populations ([4]; H1d KD cells)	proportion of the double positive CD11b/CD11c populations ([4]; control (no H1d KD))	CD11b expression (percentage of CD11b positive cells) ([4]; 72 hours, with H1d KD (doxycycline-induced))	CD11b expression (percentage of CD11b positive cells) ([4]; 72 hours, without H1d KD (control))	CD11b expression ([4]; ATRA 1 μM, 72 hours, with H1d KD versus control)
Nc1ccn([C@@H]2O[C@H](CO)[C@@H](O)[C@@H]2O)c(=O)n1 [ARAC, cytarabine]	identical before and after treatment	increased	Response to chemotherapy was obtained in all mice	–	–	–	–	–	–	–	–	–
CC1=C(/C=C/C(C)=C/C=C/C(C)=C/C(=O)O)C(C)(C)CCC1 [ATRA, all-trans retinoic acid]	–	–	–	31.5±3.7	9.7%	increased the amplitude of ATRA-induced upregulation	increased the amplitude of ATRA-induced upregulation	42.5%	29.8%	41%	22.6%	significant increase

From patent US20220340975A1, “METHOD OF TREATMENT AND PRONOSTIC OF ACUTE MYELOID LEUKEMIA” (INSERM (Institute National de la Santé et de la Recherche …, priority 2019, published 2022)
